# Source: PMC6713104, “New peptide derived antimalaria and antimicrobial agents bearing sulphonamide moiety” (Journal of Enzyme Inhibition and Medicinal Chemistry, 2019)
# Like-named read-outs stand apart in the source and are kept apart here. Non-standard residues stand in square brackets, D forms with d. Residues, ends and D or L forms follow the SMILES beside them. ξ: configuration not given here. *: point of attachment. Tos = Cc1ccc(S(=O)(=O)*)cc1; βNA = c1ccc2cc(N*)ccc2c1; NHPh = c1ccc(N*)cc1; ξA = CC(N)C(=O)O
# Key:
# B. subtilis = assay: Antimicrobial MIC, agar cup diffusion; type: cell-based; conditions: for MIC: Bacillus subtilis, B. subtilis, read-out: MIC (minimum inhibitory concentration); for activity against Bacillus compared with ciprofloxacin: in words
# A. niger = assay: Antimicrobial MIC, agar cup diffusion; type: cell-based; conditions: Aspergillus niger, read-out: MIC (minimum inhibitory concentration)
# K. pneumoniae = assay: Antimicrobial MIC, agar cup diffusion; type: cell-based; conditions: Klebsiella pneumoniae, read-out: MIC (minimum inhibitory concentration)
# C. albicans = assay: Antimicrobial MIC, agar cup diffusion; type: cell-based; conditions: Candida albicans, read-out: MIC (minimum inhibitory concentration)
# E. coli = assay: Antimicrobial MIC, agar cup diffusion; type: cell-based; conditions: Escherichia coli, read-out: MIC (minimum inhibitory concentration)
# [1] = tested on: Plasmodium berghei infection in mice; assay: In vivo antimalaria test; conditions: P. berghei infected mice; for inhibition in vivo at 100 mg/kg / inhibition in vivo at 200 mg/kg: Plasmodium berghei, oral
# Method: Experimental Design and Treatment of Mice. Methods of Peter et al.[30] and Kalra et al.[31] for antiplasmodial assay against Plasmodium berghei infection in mice with some modifications were employed. About eighty infected mice were randomly divided into five groups, each having […] mice. The inoculum was prepared from a donor mouse with rising parasitemia of 60.42%. After 7 days of infection, animals begin to receive treatment (100 and 200 mg/kg b wt.) of the synthesized compounds (7a–7n) for 12 days with constant check of the percentage of parasitemia after a 4-day interval. Artemisinin (100 and 200 mg/kg body weight.) was given to the other mice in group three as positive control, group four was not treated and group five was not infected. All the compounds and the drugs were given orally by using a standard intragastric tube. For all parasitemia determination, blood samples were collected from tail snip of each mouse and thin smears prepared and stained with 10% Giemsa solution. The uniform fields of each stained slide (for each mouse) were examined under microscope with an oil immersion objective of 100X magnification power and average percent of parasitemia was determined.
# To determine the in vivo activity, the compounds were tested against P. berghei NK(65 Strain) infection mice., the animals were obtained from Nigeria institute for Trypanosoma and onchocercarioses Research (NTIR) Vom, Plateau State Nigeria. The permission and approval for the use of animals in this experiment were granted by the Animal Ethics Committee, Federal College of Vetrenary Medical Laboratory, Vom, Plateau State. Method of Peter et al.[30], for antiplasmodial assay against P. berghei in mice with some modification were employed. Artemisimin was used as treated control of the experiments. The percentage inhibition of parasite multiplication was calculated comparing the treated group with untreated group by means of the following formula[39] [(A − B)/A] × 100; where A = parasitaemia in the untreated group and B = parasitemia in the test group. […] Most of the compounds were active against P. berghei after 7 days post-infection by reducing the parasiteamia by at least 40% when in a dose of 100 mg/kg (Table 5). The inhibition of parasitaemia increased on 12th day post infection for almost all the compounds. […] However in consideration of the compounds ability to inhibit parasitaemia to the control drug. […] These compounds should be considered for further studies because of its promising activities.
# P. falciparum strain W2 = assay: In vitro antimalarial assay; type: cell-based; conditions: Plasmodium falciparum, W2, P. falciparum
# S. typhi = assay: Antimicrobial MIC, agar cup diffusion; type: cell-based; conditions: Salmonella enterica, read-out: MIC (minimum inhibitory concentration)
# Liver function tests = type: in vivo; design: Glucose: unit not given here; conditions: mice, 10 mg/kg
# Description: (§1) Twenty-four hours before the injecting the compounds, the blood sample of five mice was taken and it was also taken after the last day of treatment, the animals were sacrificed by cervical dislocation and the blood samples were collected by heart puncture. The blood samples for haematological parameters (red blood cell (RBC) count, white blood cell (WBC) count, packed cell volume (PCV), and hemoglobin (HGB)) were collected into EDTA bottles and analyzed using an automated machine (Automated CBC Analyzer: Sysmex KX-21). The liver function tests carried out with the blood of the rats fed with the sulfonamide derivatives were aspartate aminotransperase (AST), alanine transaminase (ALT) and alkaline phosphatase (ALP). Standard laboratory procedure according to Reitman and Franke[32] was used for the determination of parameters.
# [2] = Renal or kidney function test; type: in vivo; conditions: mice, 10 mg/kg
# Description: as §1, with “KX-21). Kidney” for “KX-21). The liver”, “derivatives were, creatinine” for “derivatives were aspartate aminotransperase (AST), alanine transaminase (ALT)”, “and albunim. The method reported by Kaplan” for “and alkaline phosphatase (ALP). Standard laboratory procedure according to Reitman”, “and Tengv[33]” for “and Franke[32]”, “used in” for “used for”, “of creatinine.” for “of parameters.”
# Haematological analysis = type: in vivo, mice
# Description: Twenty-four hours before the injecting the compounds, the blood sample of five mice was taken and it was also taken after the last day of treatment, the animals were sacrificed by cervical dislocation and the blood samples were collected by heart puncture. The blood samples for haematological parameters (red blood cell (RBC) count, white blood cell (WBC) count, packed cell volume (PCV), and hemoglobin (HGB)) were collected into EDTA bottles and analyzed using an automated machine (Automated CBC Analyzer: Sysmex KX-21).
# The blood samples for haematological parameters (red blood cell (RBC) count, white blood cell (WBC) count, packed cell volume (PCV), and haemoglobin (HGB)) were collected into EDTA bottles and analyzed using an automated machine (Automated CBC Analyzer: Sysmex KX-21) (Table 8). From the analysis, even though there is a decrease in the value of RBC, PCV and HB, it is observed that there is no significant changes in the parameters that were analyzed for the control and the test compounds.
# [3] = 168 h, read-out: % inhibition 7 days post-treatment (100 mg/kg), day 7
# [4] = 168 h, read-out: % inhibition 7 days post-treatment (200 mg/kg), day 7
# [5] = 288 h, read-out: % inhibition 12 days post-treatment (100 mg/kg), day 12
# [6] = 288 h, read-out: % inhibition 12 days post-treatment (200 mg/kg), day 12
# [7] = 48 h, >99% of parasites inhibited from developing to schizonts
smiles,measurement,setting,value
CC(NS(=O)(=O)c1ccccc1)C(=O)NCC(=O)Nc1ccc(Cl)cc1 (stereo not drawn) [Compound 7b],MIC,B. subtilis,129 µg/mL
same,activity against Bacillus compared with ciprofloxacin,B. subtilis,greater activity against Bacillus than ciprofloxacin
same,MIC,A. niger,100 µg/mL
same,MIC,K. pneumoniae,1690 µg/mL
same,melting point,,140 to 142 °C
same,MIC,C. albicans,135 µg/mL
same,MIC,E. coli,467 µg/mL
same,inhibition in vivo at 100 mg/kg,[1]; [3],51.3%
same,inhibition in vivo at 200 mg/kg,[1]; [4],57.6%
same,inhibition in vivo at 100 mg/kg,[1]; [5],55.2%
same,inhibition in vivo at 200 mg/kg,[1]; [6],53.4%
same,MIC,P. falciparum strain W2; [7],0.87 µM
same,MIC,S. typhi,602 µg/mL
CC(NS(=O)(=O)c1ccccc1)C(=O)NCC(=O)Nc1cccc(F)c1 (stereo not drawn) [Compound 7c],MIC,B. subtilis,3470 µg/mL
same,MIC,K. pneumoniae,129 µg/mL
same,melting point,,125 to 127 °C
same,MIC,C. albicans,3470 µg/mL
same,MIC,E. coli,372 µg/mL
same,inhibition in vivo at 100 mg/kg,[1]; [3],48.3%
same,inhibition in vivo at 200 mg/kg,[1]; [4],40.2%
same,inhibition in vivo at 100 mg/kg,[1]; [5],51.3%
same,inhibition in vivo at 200 mg/kg,[1]; [6],48.7%
same,ALT,Liver function tests; After,23.5 µ/L
same,AST,Liver function tests; After,61.5 µ/L
same,Bilirubin,Liver function tests; After,0.5 mg/dL
same,Glucose,Liver function tests; After,5.0
same,T.P.,Liver function tests; After,5.5 g/dL
same,ALT,Liver function tests; Before,20.5 µ/L
same,AST,Liver function tests; Before,62.0 µ/L
same,Bilirubin,Liver function tests; Before,0.3 mg/dL
same,Glucose,Liver function tests; Before,5.6
same,T.P.,Liver function tests; Before,5.8 g/dL
same,MIC,P. falciparum strain W2; [7],0.72 µM
same,MIC,S. typhi,2690 µg/mL
same,Albumin,[2]; After,3.0 g/dL
same,Creatinine,[2]; After,0.3 mg/dL
same,Albumin,[2]; Before,3.5 g/dL
same,Creatinine,[2]; Before,0.3 mg/dL
same,HB,Haematological analysis; After treatment,9.8 g/dL
same,PCV,Haematological analysis; After treatment,33%
same,RBC,Haematological analysis; After treatment,6.0 × 10^6 mm^3
same,WBC,Haematological analysis; After treatment,9.0 × 10^3 mm^3
same,HB,Haematological analysis; Before treatment,14.5 g/dL
same,PCV,Haematological analysis; Before treatment,38%
same,RBC,Haematological analysis; Before treatment,7.5 × 10^6 mm^3
same,WBC,Haematological analysis; Before treatment,10.3 × 10^3 mm^3
Cc1ccc(NC(=O)CNC(=O)C(C)NS(=O)(=O)c2ccccc2)cc1 (stereo not drawn) [Compound 7e],MIC,A. niger,2090 µg/mL
same,melting point,,160 to 162 °C
same,MIC,C. albicans,28.8 µg/mL
same,MIC,E. coli,6330 µg/mL
same,ability to inhibit parasitaemia compared to the control drug,[1]; in words,almost the same or better activity compared to the artemisinin
same,inhibition in vivo at 100 mg/kg,[1]; [3],62.3%
same,inhibition in vivo at 200 mg/kg,[1]; [4],40.2%
same,inhibition in vivo at 100 mg/kg,[1]; [5],66.7%
same,inhibition in vivo at 200 mg/kg,[1]; [6],50.7%
same,ALT,Liver function tests; After,22.0 µ/L
same,AST,Liver function tests; After,60.5 µ/L
same,Bilirubin,Liver function tests; After,0.2 mg/dL
same,Glucose,Liver function tests; After,5.0
same,T.P.,Liver function tests; After,4.5 g/dL
same,ALT,Liver function tests; Before,24.0 µ/L
same,AST,Liver function tests; Before,64.0 µ/L
same,Bilirubin,Liver function tests; Before,0.3 mg/dL
same,Glucose,Liver function tests; Before,5.8
same,T.P.,Liver function tests; Before,5.8 g/dL
same,MIC,P. falciparum strain W2,30 µM
same,MIC,P. falciparum strain W2; [7],0.05 µM
same,MIC,S. typhi,194 µg/mL
same,Albumin,[2]; After,3.5 g/dL
same,Creatinine,[2]; After,0.3 mg/dL
same,Albumin,[2]; Before,4.1 g/dL
same,Creatinine,[2]; Before,0.3 mg/dL
same,HB,Haematological analysis; After treatment,11.0 g/dL
same,PCV,Haematological analysis; After treatment,35%
same,RBC,Haematological analysis; After treatment,6.0 × 10^6 mm^3
same,WBC,Haematological analysis; After treatment,10.5 × 10^3 mm^3
same,HB,Haematological analysis; Before treatment,14.1 g/dL
same,PCV,Haematological analysis; Before treatment,36%
same,RBC,Haematological analysis; Before treatment,6.85 × 10^6 mm^3
same,WBC,Haematological analysis; Before treatment,12.2 × 10^3 mm^3
"CC(NS(=O)(=O)c1ccccc1)C(=O)NCC(=O)Nc1ccc2ccccc2c1 (stereo not drawn) [Compound 7g, N-(2-(naphthalene-2-ylamino)-2-oxoethyl)-2-(phenylsulfonamido)propanamide]",MIC,B. subtilis,141 µg/mL
same,activity against Bacillus compared with ciprofloxacin,B. subtilis,greater activity against Bacillus than ciprofloxacin
same,MIC,A. niger,158 µg/mL
same,MIC,K. pneumoniae,166 µg/mL
same,melting point,,170 to 172 °C
same,MIC,C. albicans,29.7 µg/mL
same,inhibition in vivo at 100 mg/kg,[1]; [3],27.5%
same,inhibition in vivo at 200 mg/kg,[1]; [4],54.7%
same,inhibition in vivo at 100 mg/kg,[1]; [5],36.8%
same,inhibition in vivo at 200 mg/kg,[1]; [6],51.9%
same,MIC,P. falciparum strain W2; [7],3.23 µM
same,MIC,S. typhi,79 µg/mL
"Cc1ccc(NC(=O)CNC(=O)C(C)NS(=O)(=O)c2ccc(C)cc2)cc1 (stereo not drawn) [Compound 7l, 2–(4-methylphenylsulfonamido)-N-(2-oxo-2-(p-tolylamino)ethyl)propanamide]",MIC,B. subtilis,245 µg/mL
same,MIC,A. niger,123 µg/mL
same,MIC,K. pneumoniae,107 µg/mL
same,melting point,,120 to 122 °C
same,MIC,C. albicans,174 µg/mL
same,MIC,E. coli,169 µg/mL
same,inhibition in vivo at 100 mg/kg,[1]; [3],38.2%
same,inhibition in vivo at 200 mg/kg,[1]; [4],60.7%
same,inhibition in vivo at 100 mg/kg,[1]; [5],41.7%
same,inhibition in vivo at 200 mg/kg,[1]; [6],74.6%
same,MIC,P. falciparum strain W2; [7],0.93 µM
same,MIC,S. typhi,57 µg/mL
"Cc1ccc(S(=O)(=O)NC(C)C(=O)NCC(=O)Nc2ccccc2)cc1 (stereo not drawn) [Compound 7m, 2–(4-methylphenylsulfonamido)-N-(2-oxo-2-(phenylamino)ethyl)propanamide] (Tos-[ξA]-Gly-NHPh)",MIC,B. subtilis,129 µg/mL
same,activity against Bacillus compared with ciprofloxacin,B. subtilis,greater activity against Bacillus than ciprofloxacin
same,MIC,A. niger,56 µg/mL
same,MIC,K. pneumoniae,138 µg/mL
same,MIC,C. albicans,7940 µg/mL
same,MIC,E. coli,123 µg/mL
same,inhibition in vivo at 100 mg/kg,[1]; [3],33.5%
same,inhibition in vivo at 200 mg/kg,[1]; [4],71.4%
same,inhibition in vivo at 100 mg/kg,[1]; [5],29.3%
same,inhibition in vivo at 200 mg/kg,[1]; [6],74%
same,MIC,P. falciparum strain W2; [7],1.87 µM
same,MIC,S. typhi,57 µg/mL
"Cc1ccc(S(=O)(=O)NC(C)C(=O)NCC(=O)Nc2ccc3ccccc3c2)cc1 (stereo not drawn) [Compound 7n, 2–(4-methylphenylsulfonamido)-N-(2-(naphthalene-2-ylamino)-2-oxoethyl)propanamide] (Tos-[ξA]-Gly-βNA)",MIC,A. niger,39 µg/mL
same,melting point,,174 to 176 °C
same,MIC,C. albicans,155 µg/mL
same,MIC,E. coli,123 µg/mL
same,inhibition in vivo at 100 mg/kg,[1]; [3],47.8%
same,inhibition in vivo at 200 mg/kg,[1]; [4],63.8%
same,inhibition in vivo at 100 mg/kg,[1]; [5],49.1%
same,inhibition in vivo at 200 mg/kg,[1]; [6],71.7%
same,MIC,P. falciparum strain W2; [7],2.34 µM
same,MIC,S. typhi,617 µg/mL
